Each structure is given as a SMILES string.

T1 sequence (Q12791 whole entry): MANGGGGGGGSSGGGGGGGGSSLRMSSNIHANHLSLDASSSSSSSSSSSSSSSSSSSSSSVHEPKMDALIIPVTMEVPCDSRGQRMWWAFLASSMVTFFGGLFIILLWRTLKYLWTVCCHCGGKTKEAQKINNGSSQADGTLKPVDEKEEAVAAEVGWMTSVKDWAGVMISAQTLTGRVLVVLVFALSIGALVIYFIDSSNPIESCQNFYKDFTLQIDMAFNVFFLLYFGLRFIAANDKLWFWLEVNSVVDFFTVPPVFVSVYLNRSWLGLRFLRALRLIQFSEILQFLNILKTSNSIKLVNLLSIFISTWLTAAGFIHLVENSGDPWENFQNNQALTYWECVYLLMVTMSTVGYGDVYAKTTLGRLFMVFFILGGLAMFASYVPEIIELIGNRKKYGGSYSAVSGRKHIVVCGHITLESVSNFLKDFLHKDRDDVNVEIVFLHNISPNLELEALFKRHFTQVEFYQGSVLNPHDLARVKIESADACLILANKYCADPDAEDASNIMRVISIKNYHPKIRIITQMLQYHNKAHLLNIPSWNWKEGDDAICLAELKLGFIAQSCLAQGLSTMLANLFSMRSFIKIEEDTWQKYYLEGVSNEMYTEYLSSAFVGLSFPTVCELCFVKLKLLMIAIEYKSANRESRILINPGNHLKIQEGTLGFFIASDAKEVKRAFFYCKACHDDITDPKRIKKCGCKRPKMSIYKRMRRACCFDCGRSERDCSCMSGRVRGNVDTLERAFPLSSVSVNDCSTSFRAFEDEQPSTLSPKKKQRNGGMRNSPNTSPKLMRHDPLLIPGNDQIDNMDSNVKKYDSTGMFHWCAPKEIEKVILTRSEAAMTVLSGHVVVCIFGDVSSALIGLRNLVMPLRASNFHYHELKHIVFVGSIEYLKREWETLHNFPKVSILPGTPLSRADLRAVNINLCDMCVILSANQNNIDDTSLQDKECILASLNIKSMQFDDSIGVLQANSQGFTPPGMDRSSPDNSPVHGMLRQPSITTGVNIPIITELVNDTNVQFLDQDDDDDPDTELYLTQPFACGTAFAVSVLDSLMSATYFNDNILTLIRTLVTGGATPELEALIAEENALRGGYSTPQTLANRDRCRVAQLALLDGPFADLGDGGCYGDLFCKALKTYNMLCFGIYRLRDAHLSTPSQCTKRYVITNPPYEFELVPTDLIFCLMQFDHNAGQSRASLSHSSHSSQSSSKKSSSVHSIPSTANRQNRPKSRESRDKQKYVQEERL
T1 sequence (Q16558 whole entry partner): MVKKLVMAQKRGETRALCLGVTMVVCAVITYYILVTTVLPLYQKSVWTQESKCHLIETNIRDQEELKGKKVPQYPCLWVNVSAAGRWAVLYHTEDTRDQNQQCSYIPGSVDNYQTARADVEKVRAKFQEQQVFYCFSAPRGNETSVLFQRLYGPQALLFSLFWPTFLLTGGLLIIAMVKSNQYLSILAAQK

The test concerns the target T1, human BKαβ1 channels (Homo sapiens, UniProt Q12791).
T1 construct: expressed in transfected cells; host or cells: CHO cells (G418 and hygromycin selection)
The test can be described thus: BK current in CHO cells expressing human BKαβ1 (PatchXpress whole-cell patch clamp), EC100. As to conditions: drug concentration causing 100% increase of BK current. Format: cell-based. On the procedure:
Methods for Testing Compounds on Human BKαβ1 Channels Expressed Cho Cells
CHO cells expressing human BKαβ1 were cultured in T75 or 6 well cell culture cluster. Medium: DMEM/F12+10% FBS+0.5 mg/mL G418/genetecin+0.1 mg/mL Hygromycin. Split cells every 3-4 days at 80-90% confluence. Use cells for experiments 60-72 hrs after re-passage and at ˜90% confluence.
Trypsin solution (0.05% Trypsin+0.1% EDTA), Ca^2+ free PBS and culture medium were warmed to 37° C. Inspect the T75 flask for cell confluence. Remove culture medium and add warm Ca^2+ free PBS to wash cells. Remove Ca^2+ free PBS and add warm Trypsin solution. Put the T75 flask back to 37° C. incubator for about 4.5 minutes. Stop Trypsin activity by adding culture medium. Spin the cells down. Suspend cells in 120-160 μL external solution for BK current recording and use the cells as soon as possible.
PatchXpress Sealchip 16 electrodes (AVIVA Biosciences) and PatchXpress 7000A (Axon Instruments, Inc) were used for BK current recording. Flat bottom 1.5 mL glass vial (HiPep Laboratories) were used for containing external solutions (±compounds). The holes in the sealchip (equivalent to patch electrode) had resistance about 1.5 MΩ. Cell membrane capacitance was compensated and access resistance was also compensated by 40%. Voltage-clamp protocol: Holding voltage=0 mV. Record BK current during 200-ms steps between +80 to +120 mV in 10 mV increments and 2 sec inter-pulse interval. On-line digital leak subtraction was performed by a P/−4 procedure. After whole-cell configuration was established, 2 minute was used to optimize access resistance. Then the chamber was washed with control bath solution for 1 minute to remove excessive cells. Control bath solution was added with robotic pipette and control BK current was recorded after 1 minute equilibrium time. For each drug concentration, 45 μL drug solution was added three times with “suction before adding” mode which left old solution. For each drug addition, 1 minute equilibrium time was given. BK current was measured at each drug concentrations (usually within 3.5 minutes after first drug addition). Calculate % change of BK current at the voltage step when the control BK current first exceeding 200 pA. If the control BK current was less than 200 pA at 120 mV, the cell was not used. % changes were calculated as 100*(Id−Ic)/Ic, where Id was the current amplitude in the presence of drug and Ic was the control current amplitude.
EC100 was defined as the drug concentration causing 100% increase of BK current calculated by the method described above. EC100 was determined by the data points just below and above 100%. % Increase of BK current was plotted against log [drug concentration]. A straight line connected two data points flanking 100%. From this straight line, the concentration corresponding to 100% increase of BK current was determined as EC100.
Compounds were dissolved in DMSO to make 10 mM stock solutions. Subsequent dilutions were made with external solution. The testing drug concentrations were 0.1, 0.3, 1, 3 and 10 μM depending on the potency of compounds. The highest DMSO concentration was 0.1%. External solution (in mM): 140 NaCl, 4 KCl, 1 MgCl2, 2 CaCl2, 10 Glucose, 10 HEPES; pH=7.4 with NaOH. Internal solution (in mM): 140 KCl, 5 EGTA, 1 MgCl2, 5 MgATP, 0.2 CaCl2, 5 HEPES; pH=7.2 with KOH.
Consider `COC[C@@H]1CCCN1c1nc(OC(C)(C)C(=O)[O-])nc(-c2ccc(Cl)c(F)c2)n1.[Na+]` [Example 6], for which the EC100 came out at 1.61 µM.

Turning to `CC(C)(Oc1cc(N2CCC(C(C)(C)O)CC2)nc(-c2ccc(Cl)c(F)c2)n1)C(=O)[O-].[Na+]` [Example 16], the EC100 was found to be 1.91 µM.

As to `COCC1CCN(c2cc(OC(C)(C)C(=O)[O-])nc(-c3ccc(Cl)c(F)c3)n2)CC1.[Na+]` [Example 17], the EC100 turned out to be 2.47 µM.

For the molecule `CCC(CC)(Oc1cc(N2CCC(OC)CC2)nc(-c2ccc(Cl)c(F)c2)n1)C(=O)[O-].[Na+]` [Example 33], the EC100 turned out to be 1.75 µM.

The molecule `COC[C@@H]1CCCN1c1cc(OC2(C(=O)[O-])CC2)nc(-c2ccc(Cl)c(F)c2)n1.[Na+]` [Example 36] registered an EC100 of 0.59 µM.

In turn, `COC[C@H]1CCCN1c1cc(OC2(C(=O)[O-])CC2)nc(-c2ccc(Cl)c(F)c2)n1.[Na+]` [Example 37] showed an EC100 of 0.69 µM.

The molecule `COCC1CCN(c2cc(OC3(C(=O)[O-])CC3)nc(-c3ccc(Cl)c(F)c3)n2)CC1.[Na+]` [Example 39] had an EC100 of 0.25 µM.

`O=C([O-])C1(Oc2cc(NC3CCCC3)nc(-c3ccc(Cl)c(F)c3)n2)CC1.[Na+]` [Example 47] registered an EC100 of 0.33 µM.

`CCO[C@H]1CCCN(c2cc(OC3(C(=O)[O-])CC3)nc(-c3ccc(Cl)c(F)c3)n2)C1.[Na+]` [Example 50] gave an EC100 of 1.05 µM.

As for `CCOC1CCN(c2cc(OC3(C(=O)[O-])CC3)nc(-c3ccc(Cl)c(F)c3)n2)C1.[Na+]` (stereo not shown) [Example 51], the EC100 amounted to 1.09 µM.

For `COC[C@@H]1CCCN1c1cc(OC2(C(=O)[O-])CCCC2)nc(-c2ccc(Cl)c(F)c2)n1.[Na+]` [Example 54], the EC100 amounted to 1.31 µM.

In turn, `COC[C@@H]1CCCN1c1cc(OC2(C(=O)[O-])CC2)nc(-c2cccc(C(F)(F)F)c2)n1.[Na+]` [Example 62] displayed an EC100 of 1.5 µM.

`COC[C@@H]1CCCN1c1cc(OC2(C(=O)[O-])CC2)nc(-c2ccc(C(F)(F)F)cc2)n1.[Na+]` [Example 63] registered an EC100 of 1.28 µM.

The molecule `CCOc1cccc(-c2nc(OC3(C(=O)[O-])CC3)cc(N3CCC[C@H]3COC)n2)c1.[Na+]` [Example 65] returned an EC100 of 1.43 µM.

`COC[C@@H]1CCCN1c1cc(OC2(C(=O)[O-])CC2)nc(-c2ccc(Cl)s2)n1.[Na+]` [Example 67] came in with an EC100 of 1.92 µM.

As for `COCC1CCN(c2cc(OC3(C(=O)[O-])CC3)nc(-c3ccc(Cl)s3)n2)CC1.[Na+]` [Example 69], the EC100 was 2.56 µM.

Turning to `CCCOC1CCN(c2cc(OC3(C(=O)[O-])CC3)nc(-c3ccc(F)cc3)n2)CC1.[Na+]` [Example 78], the EC100 is 1.41 µM.

For `COc1ccc(C(C)=O)cc1-c1cc(OC2(C(=O)[O-])CC2)nc(-c2ccc(Cl)c(F)c2)n1.[Na+]` [Example 199], the EC100 worked out at 1.14 µM.

On to `COc1cccc(-c2cc(OC(C)(C)C(=O)[O-])nc(-c3ccc(Cl)c(F)c3)c2)c1.[Na+]` [Example 206], for which the EC100 turned out to be 0.68 µM.

The molecule `COc1ccccc1-c1nc(OC(C)(C)C(=O)[O-])nc(-c2ccc(Cl)c(F)c2)n1.[Na+]` [Example 207] displayed an EC100 of 1.91 µM.

As for `COc1cc(F)ccc1-c1cc(OC2(C(=O)[O-])CC2)nc(-c2ccc(F)c(F)c2)n1.[Na+]` [Example 208], the EC100 was found to be 0.38 µM.

Regarding `COCCOc1cc(F)ccc1-c1cc(OC2(C(=O)[O-])CC2)nc(-c2ccc(Cl)c(F)c2)n1.[Na+]` [Example 209], the EC100 came to 0.27 µM.

Molecule `CC(C)(Oc1cc(-c2ccc(F)cc2)nc(-c2ccc(Cl)c(F)c2)n1)C(=O)[O-].[Na+]` [Example 474] showed an EC100 of 0.36 µM.

The molecule `COCc1ccc(-c2cc(OC(C)(C)C(=O)[O-])nc(-c3ccc(Cl)c(F)c3)n2)cc1.[Na+]` [Example 485] displayed an EC100 of 1.83 µM.

With `COc1nc(-c2cc(OC(C)(C)C(=O)[O-])nc(-c3ccc(Cl)c(F)c3)n2)cs1.[Na+]` [Example 506], the EC100 came to 1.38 µM.

With `O=C([O-])C1(Oc2cc(-c3ccc(F)cc3)nc(-c3ccc(Cl)c(F)c3)n2)CC1.[Na+]` [Example 512], the EC100 is 0.14 µM.

Take `COc1ccc(-c2cc(OC3(C(=O)[O-])CC3)nc(-c3ccc(Cl)c(F)c3)n2)cc1F.[Na+]` [Example 518]: the EC100 turned out to be 0.1 µM.

Regarding `COc1cc(F)cc(-c2cc(OC3(C(=O)[O-])CC3)nc(-c3ccc(Cl)c(F)c3)n2)c1.[Na+]` [Example 519], the EC100 is 0.12 µM.

`COc1ccc(F)cc1-c1cc(OC2(C(=O)[O-])CC2)nc(-c2ccc(Cl)c(F)c2)n1.[Na+]` [Example 520] displayed an EC100 of 0.32 µM.

On to `COc1cc(-c2cc(OC3(C(=O)[O-])CC3)nc(-c3ccc(Cl)c(F)c3)n2)ccc1F.[Na+]` [Example 522], for which the EC100 came out at 0.39 µM.

As for `COCc1cccc(-c2cc(OC3(C(=O)[O-])CC3)nc(-c3ccc(Cl)c(F)c3)n2)c1.[Na+]` [Example 526], the EC100 worked out at 0.36 µM.

Turning to `O=C([O-])C1(Oc2cc(-c3ccc4c(c3)OCCO4)nc(-c3ccc(Cl)c(F)c3)n2)CC1.[Na+]` [Example 529], the EC100 worked out at 0.12 µM.

For the molecule `CCOc1ncccc1-c1cc(OC2(C(=O)[O-])CC2)nc(-c2ccc(Cl)c(F)c2)n1.[Na+]` [Example 533], the EC100 amounted to 0.5 µM.

In the case of `N#Cc1cccc(-c2cc(OC3(C(=O)[O-])CC3)nc(-c3ccc(Cl)c(F)c3)n2)c1.[Na+]` [Example 548], the EC100 was determined as 0.29 µM.

`N#Cc1ccc(-c2cc(OC3(C(=O)[O-])CC3)nc(-c3ccc(Cl)c(F)c3)n2)cc1.[Na+]` [Example 549] displayed an EC100 of 0.33 µM.

Turning to `O=C([O-])C1(Oc2cc(-c3ccccc3O)nc(-c3ccc(Cl)c(F)c3)n2)CC1.[Na+]` [Example 552], the EC100 was 0.2 µM.

Molecule `CCOc1cccc(-c2cc(OC3(C(=O)[O-])CC3)nc(-c3ccc(Cl)c(F)c3)n2)c1.[Na+]` [Example 553] displayed an EC100 of 0.1 µM.

On to `O=C([O-])C1(Oc2cc(-c3cccc(C(F)(F)F)c3)nc(-c3ccc(Cl)c(F)c3)n2)CC1.[Na+]` [Example 555], for which the EC100 was 0.3 µM.

The molecule `O=C([O-])C1(Oc2cc(-c3cccc(C(F)(F)F)c3)nc(-c3ccc(Cl)c(F)c3)n2)CC1.[Na+]` [Example 556] yielded an EC100 of 0.03 µM.

`O=C([O-])C1(Oc2cc(-c3ccc(F)cc3O)nc(-c3ccc(Cl)c(F)c3)n2)CC1.[Na+]` [Example 558] came in with an EC100 of 0.04 µM.

Consider `O=C([O-])C1(Oc2cc(-c3nccs3)nc(-c3ccc(Cl)c(F)c3)n2)CC1.[Na+]` [Example 559], for which the EC100 was 0.36 µM.

Regarding `O=C([O-])C1(Oc2cc(-c3cncc(Cl)c3)nc(-c3ccc(Cl)c(F)c3)n2)CC1.[Na+]` [Example 563], the EC100 is 0.01 µM.

Consider `COc1ncccc1-c1cc(OC2(C(=O)[O-])CCCC2)nc(-c2ccc(Cl)c(F)c2)n1.[Na+]` [Example 566], for which the EC100 turned out to be 0.56 µM.

In the case of `O=C([O-])C1(Oc2cc(-c3nccs3)nc(-c3ccc(Cl)c(F)c3)n2)CCCC1.[Na+]` [Example 570], the EC100 was found to be 2.15 µM.

Regarding `COc1ccc(F)c(-c2cc(OC3(C(=O)[O-])CCOCC3)nc(-c3ccc(Cl)c(F)c3)n2)c1.[Na+]` [Example 572], the EC100 came out at 1.07 µM.

Regarding `COc1cc(F)cc(-c2cc(OC3(C(=O)[O-])CCOCC3)nc(-c3ccc(Cl)c(F)c3)n2)c1.[Na+]` [Example 573], the EC100 was found to be 0.05 µM.

In the case of `COc1cc(F)ccc1-c1cc(OC2(C(=O)[O-])CC2)nc(-c2cccc(F)c2)n1.[Na+]` [Example 613], the EC100 stood at 0.12 µM.

With `COCCN(CC(=O)O)c1cc(-c2ccc(F)cc2)nc(-c2ccc(Cl)c(F)c2)n1` [Example 646], the EC100 turned out to be 1.23 µM.

With `O=C([O-])C1(Oc2cc(N3CCN(c4ncccn4)CC3)nc(-c3ccc(Cl)c(F)c3)n2)CC1.[Na+]` [Example 664], the EC100 came to 1.29 µM.

(Values after patent US8575338B2, “Pyrimidine, pyridine and triazine derivatives as maxi-K channel openers” (Mitsubishi Tanabe Pharma Corporation, priority 2008, dated 2013).)
